From ChEMBL document CHEMBL1130559, “The synthesis and antitumor evaluation of unsymmetrical bis-imides” (Bioorg Med Chem Lett, 1997)

Key:
[1] = system: L1210; assay: In vitro 50% inhibitory activity against L1210 murine leukemia; assay type: functional, cell-based; conditions: Mus musculus
[2] = target: Nucleic Acid; assay: In vitro DNA poly-dGdC binding by ethidium bromide displacement; assay type: nucleic-acid assay
[3] = target: Nucleic Acid; assay: In vitro DNA poly-dAdT binding by ethidium bromide displacement; assay type: nucleic-acid assay
[4] = system: Mus musculus; assay: Compound was evaluated in vivo for the maximum tolerated dose against the following human solid tumors implanted in nude miceDLD-2 (colon); assay type: functional
[5] = Solubility in water; assay type: physicochemical; conditions: read-out: S
[6] = system: Mus musculus; assay: Compound was evaluated in vivo for the maximum tolerated dose against the following human solid tumors implanted in nude mice MX-1 (breast); assay type: functional
[7] = system: Mus musculus; assay: Compound was evaluated in vivo for the percent tumor growth inhibition against human solid tumors implanted in nude mice MX-1 (breast), iv; assay type: functional
[8] = system: Mus musculus; assay: Compound was evaluated in vivo for the percent tumor growth inhibition against human solid tumors implanted in nude mice LX-1 (lung), iv; assay type: functional
[9] = system: Mus musculus; assay: Compound was evaluated in vivo for the percent tumor growth inhibition against human solid tumors implanted in nude mice DLD-2 (colon), iv; assay type: functional
[10] = system: Mus musculus; assay: Compound was evaluated in vivo for the maximum tolerated dose against the following human solid tumors implanted in nude miceLX-1 (lung); assay type: functional
[11] = system: Mus musculus; assay: Compound was evaluated in vivo for the maximum tolerated dose (MTD) against MX-1 (breast) human solid tumors implanted in nude mice; assay type: functional
[12] = system: Mus musculus; assay: Compound was evaluated in vivo for the maximum tolerated dose against the following human solid tumors implanted in nude miceMX-1 (breast); assay type: functional
[13] = system: Mus musculus; assay: Compound was evaluated in vivo for the maximum tolerated dose against human solid tumors implanted in nude mice MX-1 (breast); assay type: functional
[14] = system: Mus musculus; assay: Compound was evaluated in vivo for the maximum tolerated dose against human solid tumors implanted in nude miceDLD-2 (colon); assay type: functional
[15] = system: Mus musculus; assay: Compound was evaluated in vivo for the maximum tolerated dose against human solid tumors implanted in nude miceLX-1 (lung); assay type: functional

Compound	IC50 [1] [nM]	IC50 [2] [nM]	IC50 [3] [nM]	solubility [5] [mg/mL]	further results
C[C@H](CNCCNC[C@@H](C)N1C(=O)c2cccc3c2c(cc2cc(F)cnc23)C1=O)N1C(=O)c2cccc3cc([N+](=O)[O-])cc(c23)C1=O	64	59	1420	–	–
C[C@H](CNCCNC[C@@H](C)N1C(=O)c2cc([N+](=O)[O-])cc3c2c(cc2ccncc23)C1=O)N1C(=O)c2cccc3cc([N+](=O)[O-])cc(c23)C1=O	51	62	880	–	–
C[C@H](CNCCNC[C@@H](C)N1C(=O)c2cc([N+](=O)[O-])cc3c2c(cc2cccnc23)C1=O)N1C(=O)c2cccc3cc([N+](=O)[O-])cc(c23)C1=O	24	85	1570	–	–
CS(=O)(=O)O.CS(=O)(=O)O.C[C@H](CNCCNC[C@@H](C)N1C(=O)c2cccc3cc([N+](=O)[O-])cc(c23)C1=O)N1C(=O)c2cccc3cc([N+](=O)[O-])cc(c23)C1=O [BISNAFIDE DIMESYLATE]	34	40	1000	3.5	MTD [4]: 10 mg/kg; MTD [6]: 10 mg/kg; Inhibition [7]: >96%; Inhibition [8]: 96%; Inhibition [9]: 99%; MTD [10]: 10 mg/kg
C[C@H](CNCCNC[C@@H](C)N1C(=O)c2cccc3c2c(cc2ccccc23)C1=O)N1C(=O)c2cccc3cc([N+](=O)[O-])cc(c23)C1=O	420	970	1020	–	–
C[C@H](CNCCNC[C@@H](C)N1C(=O)c2cccc3c2c(cc2ccc(C(F)(F)F)cc23)C1=O)N1C(=O)c2cccc3cc([N+](=O)[O-])cc(c23)C1=O	450	170	2550	–	–
CS(=O)(=O)O.CS(=O)(=O)O.C[C@H](CNCCNC[C@@H](C)N1C(=O)c2cccc3c2c(cc2cccnc23)C1=O)N1C(=O)c2cccc3cc([N+](=O)[O-])cc(c23)C1=O	250	73	1080	> 35.6	MTD [11]: 6.2 mg/kg
C[C@H](CNCCNC[C@@H](C)N1C(=O)c2cccc3c2c(cc2ccc(F)cc23)C1=O)N1C(=O)c2cccc3cc([N+](=O)[O-])cc(c23)C1=O	310	110	1510	–	–
CS(=O)(=O)O.CS(=O)(=O)O.Cc1cnc2c(c1)cc1c3c(cc([N+](=O)[O-])cc32)C(=O)N([C@H](C)CNCCNC[C@@H](C)N2C(=O)c3cccc4cc([N+](=O)[O-])cc(c34)C2=O)C1=O	41	73	610	–	MTD [11]: 6 mg/kg
COc1ccc2cc3c4c(cccc4c2c1)C(=O)N([C@H](C)CNCCNC[C@@H](C)N1C(=O)c2cccc4cc([N+](=O)[O-])cc(c24)C1=O)C3=O	250	130	800	–	–
CS(=O)(=O)O.CS(=O)(=O)O.C[C@H](CNCCNC[C@@H](C)N1C(=O)c2cccc3c2c(cc2ccncc23)C1=O)N1C(=O)c2cccc3cc([N+](=O)[O-])cc(c23)C1=O	35	88	1200	65	MTD [4]: 6 mg/kg; MTD [12]: 6 mg/kg; Inhibition [8]: 94%; Inhibition [9]: 99%; MTD [10]: 6 mg/kg
CS(=O)(=O)O.CS(=O)(=O)O.C[C@H](CNCCNC[C@@H](C)N1C(=O)c2ccc3c4c(ccc(c24)C1=O)CC3)N1C(=O)c2cccc3cc([N+](=O)[O-])cc(c23)C1=O	75	110	1570	29	MTD [13]: 12.5 mg/kg; Inhibition [7]: 97%; MTD [14]: 12.5 mg/kg; Inhibition [8]: 95%; Inhibition [9]: 98%; MTD [15]: 10 mg/kg
